The source of these data is the supplement of paper PMC10307832.

What all share (assay): relative viability (nuclei count vs DMSO), 5 days (fraction); higher = more cells survive
Compound in the test “BI-D1870 + Bortezomib”: CC(C)CCN1c2nc(Nc3cc(F)c(O)c(F)c3)ncc2N(C)C(=O)C1C [BI-D1870] + CC(C)C[C@H](NC(=O)[C@H](Cc1ccccc1)NC(=O)c1cnccn1)B(O)O [Bortezomib] (partner 0.002 µM)
The essentials:
(§1)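 A single step with final 0.05% Triton X-100, 1% formaldehyde and 1 ug/ml Hoechst fixed the cells and stained nuclei 5 days after treatment. Lung cancer cell lines in 1536-well plates had been treated by pin tool the day after seeding with one drug alone or a fixed anchor-drug dose plus five library-drug doses (not always all listed) in √10 steps, and nuclei were counted on 4× images. Relative viability is the ratio of nuclei in treated wells to nuclei in vehicle wells, taken as the median of duplicate plates.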

Compound in the test “BI-D1870 + Phenformin”: CC(C)CCN1c2nc(Nc3cc(F)c(O)c(F)c3)ncc2N(C)C(=O)C1C [BI-D1870] + N=C(N)NC(=N)NCCc1ccccc1 [Phenformin] (partner 250 µM)
In a few lines: as §1

Compound in the test “BI-D1870 + OSI-027”: CC(C)CCN1c2nc(Nc3cc(F)c(O)c(F)c3)ncc2N(C)C(=O)C1C [BI-D1870] + COc1cccc2cc(-c3nc([C@H]4CC[C@H](C(=O)O)CC4)n4ncnc(N)c34)[nH]c12 [OSI-027] (partner 0.5 µM)
The essentials:
as §1

Compound in the test “Zebularine + Foretinib”: O=c1ncccn1[C@@H]1O[C@H](CO)[C@@H](O)[C@H]1O [Zebularine] + COc1cc2c(Oc3ccc(NC(=O)C4(C(=O)Nc5ccc(F)cc5)CC4)cc3F)ccnc2cc1OCCCN1CCOCC1 [Foretinib] (partner 0.25 µM)
In a few lines:
as §1

Take UMC-11: the relative viability is 0.788 with BI-D1870 + Bortezomib (first compound 0.04 µM); 0.647 in the test with BI-D1870 + Bortezomib (first compound 0.1265 µM); 0.561 with BI-D1870 + Bortezomib (first compound 0.4 µM); 0.712 with BI-D1870 + Bortezomib (first compound 1.265 µM); 0.553 in the test with BI-D1870 + Bortezomib (first compound 4 µM); 0.332 with BI-D1870 + Phenformin (first compound 0.04 µM). In addition, the relative viability worked out at 0.285 in the test with BI-D1870 + Phenformin (first compound 0.1265 µM); 0.33 with BI-D1870 + Phenformin (first compound 0.4 µM); 0.295 with BI-D1870 + Phenformin (first compound 1.265 µM); 0.183 with BI-D1870 + Phenformin (first compound 4 µM); 0.519 in the test with BI-D1870 + OSI-027 (first compound 0.04 µM); 0.48 in the test with BI-D1870 + OSI-027 (first compound 0.1265 µM). Moreover, the relative viability with BI-D1870 + OSI-027 (first compound 0.4 µM) amounted to 0.479; in the test with BI-D1870 + OSI-027 (first compound 1.265 µM) it was 0.406; with BI-D1870 + OSI-027 (first compound 4 µM) it was 0.16; with Zebularine + Foretinib (first compound 1 µM), 1; in the test with Zebularine + Foretinib (first compound 3.162 µM), 1.06; in the test with Zebularine + Foretinib (first compound 10 µM), 0.626. Besides, the relative viability with Zebularine + Foretinib (first compound 31.62 µM) worked out at 0.635; in the test with Zebularine + Foretinib (first compound 100 µM), 0.357.
